From PubChem BioAssay (NCI)
Several values for one entry are separate records, joined by “and”; a condition that tells them apart may be missing. Equal entries are not always repeated.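 Values below derive from 48-hour exposures of cells grown in 96-well plates, with endpoints linearly interpolated between the two concentrations bracketing the appropriate inhibition level. Here, GI50 denotes the concentration required for 50% inhibition of growth. At the TGI there is no net growth.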

What was measured:
Assay in all cases: NCI tumour cell line growth inhibition, 48 h
XF 498 CNS = system: XF 498 CNS
RXF-631 renal = system: RXF-631 renal
DMS 114 small cell lung = system: DMS 114 small cell lung
M19-MEL melanoma = system: M19-MEL melanoma
KM20L2 colon = system: KM20L2 colon
SNB-78 CNS = system: SNB-78 CNS
DLD-1 colon = system: DLD-1 colon
LXFL 529 NSCLC = system: LXFL 529 NSCLC
MDA-N = system: MDA-N
P388 leukemia = system: P388 leukemia
SN12K1 renal = system: SN12K1 renal

| Compound | TGI (XF 498 CNS) [µM] | TGI (RXF-631 renal) [µM] | TGI (DMS 114 small cell lung) [µM] | TGI (M19-MEL melanoma) [µM] | TGI (KM20L2 colon) [µM] | TGI (SNB-78 CNS) [µM] | TGI (DLD-1 colon) [µM] | TGI (LXFL 529 NSCLC) [µM] | TGI (MDA-N) | TGI (P388 leukemia) [µM] | TGI (SN12K1 renal) [µM] | GI50 (M19-MEL melanoma) [µM] | GI50 (KM20L2 colon) [µM] | GI50 (LXFL 529 NSCLC) [µM] | GI50 (SNB-78 CNS) [µM] | GI50 (DLD-1 colon) [µM] | GI50 (XF 498 CNS) [µM] | GI50 (RXF-631 renal) [µM] | GI50 (DMS 114 small cell lung) [µM] | GI50 (MDA-N) [µM] |
| --- | --- | --- | --- | --- | --- | --- | --- | --- | --- | --- | --- | --- | --- | --- | --- | --- | --- | --- | --- | --- |
| BrC1=CC=C2NC=CC3=CC=NC1C32 (stereo unspecified) | 48 | > 100 | 58.1 | 30.1 | > 100 | > 100 | > 65.2 | > 70 | – | – | – | – | – | – | – | – | – | – | – | – |
| O=C(CO)CC(=O)C(=O)Nc1ccccc1 | – | > 100 | > 100 | > 100 | > 100 | > 100 | > 100 | > 100 | – | – | – | – | – | – | – | – | – | – | – | – |
| CC(=O)[C@@]1(O)CC[C@H]2[C@@H]3C[C@H](C)C4=CC(=O)CC[C@]4(C)[C@H]3[C@@H](O)C[C@@]21C | – | – | – | – | – | – | – | – | > 100 µM | – | – | – | – | – | – | – | – | – | – | – |
| CCCCCCCCCCCCCC(=O)CC(=O)c1c(O)cccc1O | 51.2 | – | 47.1 | > 100 | > 100 | 75.5 | > 100 | > 100 | – | – | – | – | – | – | – | – | – | – | – | – |
| N#CC(C(=O)/C(=N/N)C(C#N)c1ccccc1)c1ccccc1 (stereo unspecified) | > 100 | > 100 | > 100 | > 100 | – | > 100 | > 100 | > 100 | – | – | – | – | – | – | – | – | – | – | – | – |
| Clc1cc(Cc2cc(Cl)c(Cl)c3c2OCOC3)c2c(c1Cl)COCO2 | – | – | > 100 | > 100 | > 100 | > 100 | > 100 | > 100 | – | – | – | – | – | – | – | – | – | – | – | – |
| CCOc1ccccc1NC(=O)CC1SC(=Nc2ccc([N+](=O)[O-])cc2)NC1=O (stereo unspecified) | 32.4 | – | 32 | 64.4 | 42.2 | > 100 | 59 | 39.9 | – | – | – | – | – | – | – | – | – | – | – | – |
| Nc1ncnc2c1nc(Cl)n2C1OC2COP(=O)(O)OC2C1O (stereo unspecified) | – | – | > 300 | > 300 | > 300 | > 300 | > 194 | – | > 300 µM | > 300 | > 300 | – | – | – | – | – | – | – | – | – |
| CC(=O)[CH-]C(=O)c1ccccc1.CC(=O)[CH-]C(=O)c1ccccc1.[Eu+3].[OH-].[OH3+] | – | – | – | > 100 | > 100 | – | – | > 100 | – | – | – | > 100 | > 100 | > 100 | – | – | – | – | – | – |
| N[C@@H]1CCCC[C@H]1N.O=C([O-])C(=O)[O-].[Pt+4] | – | – | – | > 100 | 24.2 | > 100 | > 100 | > 100 | – | – | – | 1.18 | 0.263 | 2.36 | 19.8 | 3.46 | – | – | – | – |
| O=C(CC1(O)C(=O)Nc2c(Cl)ccc(Cl)c21)c1ccc2ccccc2c1 (stereo unspecified) | 25.4 | – | 19.2 | 7.82 | 62.1 | 46.3 | 59 | 21.8 | – | – | – | – | – | – | – | – | – | – | – | – |
| N#Cc1c(NN)nc(NN)c(C#N)c1-c1ccccc1 | > 100 | > 100 | > 100 | > 100 | > 100 | > 100 | > 100 | > 100 | – | – | – | – | – | – | – | – | – | – | – | – |
| CN(C)c1ccc([O][Bi]([Cl])[Cl])cc1 | > 100 | > 100 | > 100 | > 100 | > 100 | > 100 | > 100 | – | – | – | – | > 100 | > 100 | – | > 100 | > 100 | 80.6 | 30.7 | 87.9 | – |
| Oc1cc(O)c2c(-c3c(O)c(-c4ccc(O)c(O)c4)[o+]c4cc(O)cc(O)c34)c(O)c(-c3ccc(O)c(O)c3)[o+]c2c1 | 87.6 | > 100 | 92.8 | > 100 | > 100 | > 100 | > 100 | > 100 | – | – | – | – | – | – | – | – | – | – | – | – |
| Cn1c(=O)nc2n(-c3cccc(Br)c3)c3ccccc3nc-2c1=O | 15.8 | – | 4.45 | 3.03 | 6.97 | 33.3 | 29.1 | 19.5 | – | – | – | – | – | – | – | – | – | – | – | – |
| O=c1cc2ccccc2nn1Cc1cccc(Cl)c1 | 94.5 | > 100 | > 100 | > 100 | > 100 | > 100 | > 100 | – | – | – | – | – | – | – | – | – | – | – | – | – |
| O=C1NC(=O)C2C(=O)NC(=O)C1C2(c1ccccc1)c1cc[nH]c1 (stereo unspecified) | > 100 | – | > 100 | > 100 | – | > 100 | > 100 | > 100 | – | – | – | – | – | – | – | – | – | – | – | – |

| Compound | TGI (XF 498 CNS) [µM] | TGI (RXF-631 renal) [µM] | TGI (DMS 114 small cell lung) [µM] | TGI (M19-MEL melanoma) [µM] | TGI (KM20L2 colon) [µM] | TGI (SNB-78 CNS) [µM] | TGI (DLD-1 colon) [µM] | TGI (LXFL 529 NSCLC) [µM] | TGI (MDA-N) | TGI (P388 leukemia) [µM] | TGI (SN12K1 renal) [µM] | GI50 (M19-MEL melanoma) [µM] | GI50 (KM20L2 colon) [µM] | GI50 (LXFL 529 NSCLC) [µM] | GI50 (SNB-78 CNS) [µM] | GI50 (DLD-1 colon) [µM] | GI50 (XF 498 CNS) [µM] | GI50 (RXF-631 renal) [µM] | GI50 (DMS 114 small cell lung) [µM] | GI50 (MDA-N) [µM] |
| --- | --- | --- | --- | --- | --- | --- | --- | --- | --- | --- | --- | --- | --- | --- | --- | --- | --- | --- | --- | --- |
| N/C(=C\c1ccc(OCc2ccccc2)c(OCc2ccccc2)c1[N+](=O)[O-])C(=O)O | – | – | – | > 100 | > 100 | > 100 | > 100 | > 100 | – | – | – | – | – | – | – | – | – | – | – | – |
| Cc1ccccc1C(=O)c1ccccc1O | > 100 | > 100 | > 100 | > 100 | > 100 | > 100 | > 100 | > 100 | – | – | – | – | – | – | – | – | – | – | – | – |
| CC(=O)[CH-]C(=O)c1ccccc1.CC(=O)[CH-]C(=O)c1ccccc1.CC(C)CCCC(C)[C@H]1CCC2[C@@H]3CC=C4C[C@@H]([O-])CC[C@]4(C)C3CC[C@@]21C.CC[O-].[Ti+4] (stereo partly specified) | – | – | – | – | > 100 | – | > 100 | > 100 | – | – | – | – | 67.8 | 33.1 | – | 93.7 | – | – | – | – |
| N#C/C(=C/c1ccc[nH]1)P(=O)(O)O | > 100 | – | > 100 | > 100 | > 100 | > 100 | > 100 | > 100 | – | – | – | – | – | – | – | – | – | – | – | – |
| COC(=O)C(=O)OC1(C(C)=O)CC2(c3ccccc3)OC1(c1ccccc1)c1ccccc12 (stereo unspecified) | 30.5 | > 100 | 32 | 31.1 | 30.7 | 65 | 36.4 | 49.2 | – | – | – | – | – | – | – | – | – | – | – | – |
| Oc1ccccc1C=NCc1ccco1 | > 100 | > 100 | > 100 | > 100 | > 100 | > 100 | > 100 | > 100 | – | – | – | – | – | – | – | – | – | – | – | – |
| CCC/C(=N/NC(=O)C(N)=O)C(CC)C(=O)CCC(=O)N(Cc1ccccc1)Cc1ccccc1 (stereo unspecified) | > 100 | > 100 | > 100 | > 100 | > 100 | > 100 | – | > 100 | – | – | – | – | – | – | – | – | – | – | – | – |
| CC1(CO)OC(n2cc(C(=O)NC(=O)OCc3ccccc3)c(=O)[nH]c2=O)CC1O (stereo unspecified) | > 100 | > 100 | > 100 | > 100 | > 100 | – | > 100 | > 100 | – | – | – | – | – | – | – | – | – | – | – | – |
| CC(C)c1ccc(C2C3=C(N=C4SCC(=O)N42)C(=O)c2ccccc23)cc1 (stereo unspecified) | > 100 | > 100 | > 100 | > 100 | > 100 | – | > 100 | > 100 | – | – | – | – | – | – | – | – | – | – | – | – |
| COc1cc(/C=C(\C#N)C(=O)c2ccccc2)ccc1O | > 100 | – | – | > 100 | > 100 | > 100 | – | > 100 | – | – | – | – | – | – | – | – | – | – | – | – |
| CCOC(=O)N1CCc2cc(OC)c(OC)c3c2c1cc1cc(OC)c(OC)cc13 | 69 | 66 | 7.1 | > 100 | 7.16 | > 100 | > 100 | > 100 | 0.599 µM | – | – | – | – | – | – | – | – | – | – | – |
| O=[N+]([O-])c1nccn1CC(O)CN1CC1 (stereo unspecified) | > 100 | > 100 | > 100 | > 100 | > 100 | > 100 | > 100 | > 100 | – | – | – | – | – | – | – | – | – | – | – | – |
| C[S+](C)CCOC(=O)C(=[N+]=[N-])c1ccc([N+](=O)[O-])cc1 | > 100 | > 100 | > 100 | > 100 | > 100 | > 100 | – | > 100 | – | – | – | – | – | – | – | – | – | – | – | – |
| COC(=O)/C([Se]c1c(C)cc(C)cc1C)=C(\[Se]c1c(C)cc(C)cc1C)C(=O)OC | – | > 100 | > 100 | > 100 | > 100 | > 100 | > 100 | > 100 | – | – | – | – | – | – | – | – | – | – | – | – |
| N#CC(C(=O)CCC(=O)C(C#N)c1ccccc1)c1ccccc1 (stereo unspecified) | > 100 | – | > 100 | > 100 | – | > 100 | > 100 | > 100 | – | – | – | – | – | – | – | – | – | – | – | – |
| CCOC(=O)c1[nH]c(Br)c(-c2ccc(Br)cc2)c1Br | – | – | – | – | – | – | – | – | 0.505 µM and 0.273 µM | – | – | – | – | – | – | – | – | – | – | 0.0979 |
